Data taken from patent US20240382466A1, “PHARMACEUTICAL COMPOSITION FOR PREVENTING OR TREATING ALZHEIMER’S DISEASE” (priority 2021, published 2024).

Columns and labels:
GSK-3 = details: cited from earlier work
microglia = details: Alzheimer's disease inflammation model; cited from earlier work
[1] = system: mice in a model of Alzheimer's disease; test: Eight-arm maze behavioral experiment in D-galactose/AlCl3 mouse model of Alzheimer's disease; assay type: in vivo, Kunming mice; details: 8 weeks, x ± s, n = 10
From the text: A food providing device is arranged at an end of each arm of an eight-arm maze. The spatial memory ability of an experimental animal may be reflected according to the strategy of analyzing feeding of an animal, namely the parameters of the times, time, correct times, wrong times, routes and the like of entering each arm. In contrast, the eight-arm maze is simple, convenient and feasible to operate, can distinguish short-term working memory from long-term reference memory, and is widely used for evaluating a learning and memory cognitive experiment. The main analysis indexes of the eight-arm maze are name, grouping, working memory error latency, reference memory error latency, total correct times, total arm entering times, working memory error times, reference memory error times, correct latency, correct rate, working memory error rate, reference memory error rate, correct times before first error, test time, a track graph and the like. […] 100 SPF-grade Kunming mice, each half male and female, weighed 20-22 g, were provided by the Jinan Pengyue Experimental Animal Breeding Co., Ltd with the animal certificate number: SCXK(Lu)20190003. The mice were bred to freely drink and eat in an SPF-grade animal breeding room with strictly controlled environmental conditions: the temperature of 20-26° C., the humidity of 40-70%, the light and dark cycle of 12 h:12 h, and a growing and breeding feed. All mice were first trained in an eight-arm maze which was a common model for evaluating the learning and memory ability of an animal. The animals were adaptively fed for 1 week, weighed, and fasted for 24 hours. Then after each day of training, the mice were restrictively given a normal diet to maintain the body weight of the mice between 80% and 85% of that of mice fed normally. On the second day, food particles (4-5 particles each arm with the diameter of about 3-4 mm) were sprayed in each arm and a center area of the maze. Then 4 animals were placed in the center of the maze simultaneously (doors to each arm were opened). The animals were freely fed and explored for 10 min. On the third day, the training of the second day was repeated. This process allowed the animals to become familiar with the maze environment without very strong stress. On the fourth day, the animals were trained individually: one food particle was placed in each arm near an outer food box and the animals ate freely. The animals were removed after the food particles were consumed or 10 min later. On the fifth day, the food was placed in the food box and the previous day of training was repeated 2 times a day. After the sixth day, 4 arms were randomly selected and one food particle was placed in each arm; each arm door was closed and the animals were placed in the center of the maze; and after 30s, the arm door was opened, the animals moved freely in the maze and took the food particle until the animals ate the food particles of all 4 arms. If the food particles were not eaten up after 10 min, the experiment was terminated. The animals were trained twice a day with the interval of 1 h or more. […] The mice meeting the learning standard were screened, 10 of them were randomly selected as a normal group, 10 as a model group, and the others as experimental groups. Except that the mice in the normal group were intraperitoneally injected with the same amount of normal saline and intragastrically administrated with the same amount of double distilled water, the mice of the other groups were all intraperitoneally injected with D-galactose (500 mg/kg/D) (prepared with normal saline) and intragastrically administrated AlCl3 (20 mg/kg/D) (prepared with double distilled water). The mice in the experimental groups were intragastrically administrated once a day according to the grouping and administration dose and the mice in the normal group and the model group were intragastrically administrated with the same amount of purified water for 8 weeks successively. […]

[2] = system: mice in a model of Alzheimer's disease; test: Contents of tryptophan, L-kynurenine and 5-hydroxytryptamine in serum by high performance liquid chromatography; assay type: in vivo, Kunming mice; details: 8 weeks, x ± s, n = 10
Protocol: 100 SPF-grade Kunming mice, each half male and female, weighed 20-22 g, were provided by the Jinan Pengyue Experimental Animal Breeding Co., Ltd with the animal certificate number: SCXK(Lu)20190003. The mice were bred to freely drink and eat in an SPF-grade animal breeding room with strictly controlled environmental conditions: the temperature of 20-26° C., the humidity of 40-70%, the light and dark cycle of 12 h:12 h, and a growing and breeding feed. The mice meeting the learning standard were screened, 10 of them were randomly selected as a normal group, 10 as a model group, and the others as experimental groups. Except that the mice in the normal group were intraperitoneally injected with the same amount of normal saline and intragastrically administrated with the same amount of double distilled water, the mice of the other groups were all intraperitoneally injected with D-galactose (500 mg/kg/D) (prepared with normal saline) and intragastrically administrated AlCl3 (20 mg/kg/D) (prepared with double distilled water). The mice in the experimental groups were intragastrically administrated once a day according to the grouping and administration dose and the mice in the normal group and the model group were intragastrically administrated with the same amount of purified water for 8 weeks successively. The mice in the experimental groups were divided into 8 groups of low- and high-dose anhydroicaritin groups, low- and high-dose compound I groups, and composition A, B, C, and D groups with 10 mice in each group. […] After the last administration, […] of blood was taken from each eyeball of each group of the mice subjected to the eight-arm maze test and stood overnight at 4° C. in a test tube, and a supernatant was taken the following day for later use. The contents of tryptophan, L-kynurenine, and 5-hydroxytryptamine in blood serum were detected by a high performance liquid chromatography.

[3] = high-dose compound I group, 32 mg/(kg·d) intragastric once a day
[4] = low-dose compound I group, 0.6 mg/(kg·d) intragastric once a day
[5] = high-dose compound I group, 32 mg/(kg·d) intragastric
[6] = low-dose compound I group, 0.6 mg/(kg·d) intragastric
[7] = high-dose anhydroicaritin group, 21.2 mg/(kg·d) intragastric once a day
[8] = low-dose anhydroicaritin group, 3.2 mg/(kg·d) intragastric once a day
[9] = high-dose anhydroicaritin group, 21.2 mg/(kg·d) intragastric
[10] = low-dose anhydroicaritin group, 3.2 mg/(kg·d) intragastric

COc1ccc(-c2oc3c(CC=C(C)C)c(O)cc(O)c3c(=O)c2O)cc1 [icaritin]
GSK-3 activity (GSK-3): inhibiting GSK-3 activity
activation of microglia induced by LPS (microglia): inhibit excessive activation of microglia induced by LPS
learning and memory ability of mice (microglia): improve the learning and memory ability of mice

N=C(N)NCCNc1nonc1/C(=N/O)Nc1ccc(F)c(Br)c1 [compound I]
Average exploration time (s) [1, 3]: 189.95 ± 1.04^+ s
Reference memory error frequency [1, 3]: 0.21 ± 0.04^+
Working memory error frequency [1, 3]: 0.44 ± 0.05^+
Average exploration time (s) [1, 4]: 190.20 ± 1.09^+ s
Reference memory error frequency [1, 4]: 0.23 ± 0.05^+
Working memory error frequency [1, 4]: 0.52 ± 0.03^++
5-hydroxytryptamine (μg/ml) [2, 5]: 1.28 ± 0.05^+ μg/ml
L-kynurenine (μg/ml) [2, 5]: 0.33 ± 0.01^+ μg/ml
Tryptophan (μg/ml) [2, 5]: 18.08 ± 0.02^+ μg/ml
5-hydroxytryptamine (μg/ml) [2, 6]: 1.29 ± 0.05^+ μg/ml
L-kynurenine (μg/ml) [2, 6]: 0.35 ± 0.03^+ μg/ml
Tryptophan (μg/ml) [2, 6]: 17.92 ± 0.95^+ μg/ml

COc1ccc(-c2oc3c(CC=C(C)C)c(O)cc(O)c3c(=O)c2O)cc1 [anhydroicaritin]
Average exploration time (s) [1, 7]: 189.81 ± 1.19^+ s
Reference memory error frequency [1, 7]: 0.20 ± 0.04^+
Working memory error frequency [1, 7]: 0.44 ± 0.06^+
Average exploration time (s) [1, 8]: 190.17 ± 1.18^+ s
Reference memory error frequency [1, 8]: 0.21 ± 0.03^+
Working memory error frequency [1, 8]: 0.45 ± 0.02^+
5-hydroxytryptamine (μg/ml) [2, 9]: 1.30 ± 0.07^+ μg/ml
L-kynurenine (μg/ml) [2, 9]: 0.33 ± 0.02^+ μg/ml
Tryptophan (μg/ml) [2, 9]: 17.90 ± 0.30^+ μg/ml
5-hydroxytryptamine (μg/ml) [2, 10]: 1.29 ± 0.05^+ μg/ml
L-kynurenine (μg/ml) [2, 10]: 0.33 ± 0.01^+ μg/ml
Tryptophan (μg/ml) [2, 10]: 17.79 ± 0.65^+ μg/ml
